Test results as given in PubChem BioAssay (NCI).
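Protocol summary: plate cells (96-well), add compound at 5 concentrations, incubate 48 h, interpolate endpoints linearly. TGI: concentration producing complete growth inhibition.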

What was measured:
Assay in all cases: growth of human tumour cells (NCI), 48 h
786-0 renal = system: 786-0 renal
A549 NSCLC = system: A549 NSCLC
ACHN renal = system: ACHN renal
BT-549 breast = system: BT-549 breast
CAKI-1 renal = system: CAKI-1 renal
CCRF-CEM leukemia = system: CCRF-CEM leukemia
COLO 205 colon = system: COLO 205 colon
DU-145 prostate = system: DU-145 prostate
EKVX NSCLC = system: EKVX NSCLC
HCC-2998 colon = system: HCC-2998 colon
HCT-116 colon = system: HCT-116 colon
HCT-15 colon = system: HCT-15 colon
HL-60(TB) leukemia = system: HL-60(TB) leukemia
HOP-92 NSCLC = system: HOP-92 NSCLC
HT29 colon = system: HT29 colon
IGROV1 ovarian = system: IGROV1 ovarian
K-562 leukemia = system: K-562 leukemia
KM12 colon = system: KM12 colon
LOX IMVI melanoma = system: LOX IMVI melanoma
M14 melanoma = system: M14 melanoma
MALME-3M melanoma = system: MALME-3M melanoma
MCF7 breast = system: MCF7 breast
MDA-MB-231 breast = system: MDA-MB-231 breast
MDA-MB-435 = system: MDA-MB-435
MDA-N = system: MDA-N
MOLT-4 leukemia = system: MOLT-4 leukemia
NCI-H226 lung = system: NCI-H226 lung
NCI-H23 lung = system: NCI-H23 lung
NCI-H460 lung = system: NCI-H460 lung
NCI-H522 lung = system: NCI-H522 lung
NCI/ADR-RES ovarian = system: NCI/ADR-RES ovarian
OVCAR-3 ovarian = system: OVCAR-3 ovarian
OVCAR-4 ovarian = system: OVCAR-4 ovarian
OVCAR-5 ovarian = system: OVCAR-5 ovarian
OVCAR-8 ovarian = system: OVCAR-8 ovarian
PC-3 prostate = system: PC-3 prostate
RXF 393 renal = system: RXF 393 renal
SF-295 CNS = system: SF-295 CNS
SF-539 CNS = system: SF-539 CNS
SK-MEL-2 melanoma = system: SK-MEL-2 melanoma
SK-MEL-28 melanoma = system: SK-MEL-28 melanoma
SK-MEL-5 melanoma = system: SK-MEL-5 melanoma
SK-OV-3 ovarian = system: SK-OV-3 ovarian
SN12C renal = system: SN12C renal
SNB-19 CNS = system: SNB-19 CNS
SNB-75 CNS = system: SNB-75 CNS
SR leukemia = system: SR leukemia
SW-620 colon = system: SW-620 colon
T-47D breast = system: T-47D breast
TK-10 renal = system: TK-10 renal
U251 CNS = system: U251 CNS
UACC-257 melanoma = system: UACC-257 melanoma
UACC-62 melanoma = system: UACC-62 melanoma
UO-31 renal = system: UO-31 renal
A498 renal = system: A498 renal
HOP-62 NSCLC = system: HOP-62 NSCLC
RPMI-8226 leukemia = system: RPMI-8226 leukemia
SF-268 CNS = system: SF-268 CNS

`COc1ccc(N[C@H]([C@@H](c2ccccc2)S(=O)c2ccc(C)cc2)C(F)(F)F)cc1` (stereo partly specified) showed a TGI (786-0 renal) greater than 100 µM, a TGI (A549 NSCLC) greater than 100 µM and a TGI (ACHN renal) greater than 100 µM. It also gave a TGI (BT-549 breast) greater than 100 µM, a TGI (CAKI-1 renal) greater than 100 µM and a TGI (CCRF-CEM leukemia) of 66.6 µM. The TGI (COLO 205 colon) was greater than 100 µM, the TGI (DU-145 prostate) was greater than 100 µM and the TGI (EKVX NSCLC) was greater than 100 µM. The TGI (HCC-2998 colon) was greater than 100 µM, the TGI (HCT-116 colon) was greater than 100 µM and the TGI (HCT-15 colon) was greater than 100 µM. For the same compound, the TGI (HL-60(TB) leukemia) was 73.7 µM, the TGI (HOP-92 NSCLC) was greater than 100 µM and the TGI (HT29 colon) was greater than 100 µM. For the same compound, the TGI (IGROV1 ovarian) was greater than 100 µM, the TGI (K-562 leukemia) was greater than 100 µM and the TGI (KM12 colon) was greater than 100 µM. It also gave a TGI (LOX IMVI melanoma) greater than 100 µM, a TGI (M14 melanoma) greater than 100 µM and a TGI (MALME-3M melanoma) greater than 100 µM. For the same compound, the TGI (MCF7 breast) was greater than 100 µM, the TGI (MDA-MB-231 breast) was greater than 100 µM and the TGI (MDA-MB-435) was greater than 100 µM. For the same compound, the TGI (MDA-N) was greater than 100 µM, the TGI (MOLT-4 leukemia) was greater than 100 µM and the TGI (NCI-H226 lung) was greater than 100 µM. It also gave a TGI (NCI-H23 lung) greater than 100 µM, a TGI (NCI-H460 lung) greater than 100 µM and a TGI (NCI-H522 lung) greater than 100 µM. The TGI (NCI/ADR-RES ovarian) was greater than 100 µM, the TGI (OVCAR-3 ovarian) was greater than 100 µM and the TGI (OVCAR-4 ovarian) was 79.5 µM. It also gave a TGI (OVCAR-5 ovarian) greater than 100 µM, a TGI (OVCAR-8 ovarian) greater than 100 µM and a TGI (PC-3 prostate) greater than 100 µM. The TGI (RXF 393 renal) was greater than 100 µM, the TGI (SF-295 CNS) was greater than 100 µM and the TGI (SF-539 CNS) was 63.2 µM. It also gave a TGI (SK-MEL-2 melanoma) greater than 100 µM, a TGI (SK-MEL-28 melanoma) greater than 100 µM and a TGI (SK-MEL-5 melanoma) greater than 100 µM. It also gave a TGI (SK-OV-3 ovarian) greater than 100 µM, a TGI (SN12C renal) greater than 100 µM and a TGI (SNB-19 CNS) greater than 100 µM. For the same compound, the TGI (SNB-75 CNS) was greater than 100 µM, the TGI (SR leukemia) was greater than 100 µM and the TGI (SW-620 colon) was greater than 100 µM. It also gave a TGI (T-47D breast) greater than 100 µM, a TGI (TK-10 renal) greater than 100 µM and a TGI (U251 CNS) of 50.2 µM. For the same compound, the TGI (UACC-257 melanoma) was greater than 100 µM, the TGI (UACC-62 melanoma) was greater than 100 µM and the TGI (UO-31 renal) was greater than 100 µM.
`CCCCN(CCCC)CC(O)c1cc(-c2ccc(Cl)c(Cl)c2)nc2c(Cl)cc(Cl)cc12` (stereo unspecified) showed a TGI (786-0 renal) greater than 100 µM, a TGI (A498 renal) greater than 100 µM and a TGI (ACHN renal) greater than 100 µM. For the same compound, the TGI (CCRF-CEM leukemia) was greater than 100 µM, the TGI (COLO 205 colon) was greater than 100 µM and the TGI (DU-145 prostate) was greater than 100 µM. It also gave a TGI (EKVX NSCLC) greater than 100 µM, a TGI (HCC-2998 colon) greater than 100 µM and a TGI (HCT-116 colon) greater than 100 µM. It also gave a TGI (HCT-15 colon) greater than 100 µM, a TGI (HL-60(TB) leukemia) greater than 100 µM and a TGI (HOP-62 NSCLC) greater than 100 µM. The TGI (HT29 colon) was greater than 100 µM, the TGI (IGROV1 ovarian) was greater than 100 µM and the TGI (LOX IMVI melanoma) was greater than 100 µM. For the same compound, the TGI (MALME-3M melanoma) was greater than 100 µM, the TGI (MCF7 breast) was greater than 100 µM and the TGI (MDA-MB-231 breast) was greater than 100 µM. It also gave a TGI (MDA-MB-435) greater than 100 µM, a TGI (MDA-N) greater than 100 µM and a TGI (MOLT-4 leukemia) greater than 100 µM. The TGI (NCI-H23 lung) was greater than 100 µM, the TGI (NCI-H460 lung) was greater than 100 µM and the TGI (NCI/ADR-RES ovarian) was greater than 100 µM. The TGI (OVCAR-3 ovarian) was greater than 100 µM, the TGI (OVCAR-4 ovarian) was greater than 100 µM and the TGI (OVCAR-5 ovarian) was greater than 100 µM. For the same compound, the TGI (OVCAR-8 ovarian) was greater than 100 µM, the TGI (PC-3 prostate) was greater than 100 µM and the TGI (RPMI-8226 leukemia) was greater than 100 µM. It also gave a TGI (SF-268 CNS) greater than 100 µM, a TGI (SF-295 CNS) greater than 100 µM and a TGI (SF-539 CNS) greater than 100 µM. For the same compound, the TGI (SK-MEL-2 melanoma) was greater than 100 µM, the TGI (SK-MEL-28 melanoma) was greater than 100 µM and the TGI (SK-OV-3 ovarian) was greater than 100 µM. For the same compound, the TGI (SN12C renal) was greater than 100 µM, the TGI (SNB-19 CNS) was greater than 100 µM and the TGI (SNB-75 CNS) was greater than 100 µM. It also gave a TGI (SR leukemia) greater than 100 µM, a TGI (SW-620 colon) of 39.1 µM and a TGI (T-47D breast) greater than 100 µM. For the same compound, the TGI (TK-10 renal) was greater than 100 µM, the TGI (U251 CNS) was greater than 100 µM and the TGI (UACC-257 melanoma) was greater than 100 µM. It also gave a TGI (UACC-62 melanoma) greater than 100 µM and a TGI (UO-31 renal) greater than 100 µM.
